How the values were obtained:
[1] = Ratio of Cmax for test compound to Cmax for Ketamine HCL in Sprague-Dawley rat at 4.64 mg/kg,po administration measured upto 4 hrs; assay type: ADME, organism-based; conditions: in vivo
[2] = Ratio of AUC (0 to 4 hr) for test compound to AUC (0 to 4 hr) for Ketamine HCL in Sprague-Dawley rat at 4.64 mg/kg,po administration measured upto 4 hrs; assay type: ADME, organism-based; conditions: in vivo

Row | SMILES | Ratio [1] [%] | Ratio [2] [%]
1 | CC(C)[C@H](NC(=O)c1ccc[n+](COC(=O)N(C)C2(c3ccccc3Cl)CCCCC2=O)c1)C(=O)O.[Cl-] (some centres not stated) | 223 | 160
2 | CN(CC(=O)O)C(=O)c1ccc[n+](COC(=O)N(C)C2(c3ccccc3Cl)CCCCC2=O)c1.[Cl-] (configuration not stated) | 112 | 93.9
3 | C[C@H](NC(=O)c1ccc[n+](COC(=O)N(C)C2(c3ccccc3Cl)CCCCC2=O)c1)C(=O)O.[Cl-] (some centres not stated) | 73.7 | 63.2
4 | CC[C@H](C)[C@H](NC(=O)c1ccc[n+](COC(=O)N(C)C2(c3ccccc3Cl)CCCCC2=O)c1)C(=O)O.[Cl-] (some centres not stated) | 246 | 223
5 | CN(C(=O)OC[n+]1cccc(C(=O)N2CCC[C@H]2C(=O)O)c1)C1(c2ccccc2Cl)CCCCC1=O.[Cl-] (some centres not stated) | 178 | 166
6 | CN(C(=O)OC[n+]1cccc(C(=O)N[C@@H](CCCCN)C(=O)O)c1)C1(c2ccccc2Cl)CCCCC1=O.Cl.[Cl-] (some centres not stated) | 71.2 | 75.4

— ChEMBL document CHEMBL5608226, “Innovative Ketamine Formulations: Enhancing Therapeutic Efficacy and Safety” (ACS Med Chem Lett, 2024)
